Measured values taken from patent publication US10722501B2 (BAYER AKTIENGESELLSCHAFT, priority 2016, dated 2020).

target: T1, recombinant full-length human prolyl endopeptidase (PREP) (Homo sapiens, UniProt P48147); assay: Biochemical human prolyl endopeptidase (PREP) assay with fluorescently labelled substrate; conditions: substrate Z-Gly-Pro-AMC 50 μM, 32° C., 60 min; some as mean values from multiple independent determinations
T1 construct: To recombinant full-length human prolyl endopeptidase (PREP, R&D-Systems, 4308-SE); purchased R&D-Systems 4308-SE
T1 sequence (P48147 1-710): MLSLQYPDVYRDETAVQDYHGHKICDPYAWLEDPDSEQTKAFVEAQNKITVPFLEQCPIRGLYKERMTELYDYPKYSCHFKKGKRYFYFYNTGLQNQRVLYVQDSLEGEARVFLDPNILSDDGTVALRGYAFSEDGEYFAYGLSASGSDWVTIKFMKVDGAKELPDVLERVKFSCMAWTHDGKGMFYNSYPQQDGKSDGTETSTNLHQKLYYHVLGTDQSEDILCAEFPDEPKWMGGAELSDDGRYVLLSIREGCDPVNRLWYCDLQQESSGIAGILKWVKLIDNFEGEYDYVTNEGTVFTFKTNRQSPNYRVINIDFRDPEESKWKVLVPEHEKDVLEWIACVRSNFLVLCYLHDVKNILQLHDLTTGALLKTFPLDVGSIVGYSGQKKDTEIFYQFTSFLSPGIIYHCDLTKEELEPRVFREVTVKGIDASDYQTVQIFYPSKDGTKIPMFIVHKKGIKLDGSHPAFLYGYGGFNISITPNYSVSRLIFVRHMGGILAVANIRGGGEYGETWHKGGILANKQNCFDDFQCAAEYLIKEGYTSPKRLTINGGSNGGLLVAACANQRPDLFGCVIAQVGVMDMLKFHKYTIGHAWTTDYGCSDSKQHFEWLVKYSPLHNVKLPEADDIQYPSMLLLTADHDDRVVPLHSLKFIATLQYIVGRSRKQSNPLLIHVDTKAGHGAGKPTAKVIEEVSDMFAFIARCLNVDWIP
Procedure, shortened: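 Initial rates of fluorescence increase from 50 μM Z-Gly-Pro-AMC cleavage (ex 360/em 465 nm, 60 min, 32° C) give percent PREP activity versus no-compound control, and IC50 is interpolated. Enzyme used at 0.4 nM (final, example) in Tris pH 7.5 with EDTA, GSH, BSA and Brij-35; compounds span 1 nM to 30 μM.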

| SMILES | IC50 |
| --- | --- |
| O=C([C@@H]1CCCc2nn(Cc3cncc(Cl)c3)c(=O)n21)N1CC(F)(F)C1 [Example 437, (5S)-2-[(5-Chloropyridin-3-yl)methyl]-5-[(3,3-difluoroazetidin-1-yl)carbonyl]-5,6,7,8-tetrahydro[1,2,4]triazolo[4,3-a]pyridin-3(2H)-one] | 7.1 nM |
| O=C(C1CCCc2nn(Cc3ccc(F)c(F)c3)c(=O)n21)N1CCCC1 (racemic) [Example 17, (5RS)-2-(3,4-Difluorobenzyl)-5-(pyrrolidin-1-ylcarbonyl)-5,6,7,8-tetrahydro[1,2,4]triazolo[4,3-a]pyridin-3(2H)-one] | 1.2 nM |
| O=C([C@@H]1CCCc2nn(Cc3ccc(Cl)nc3)c(=O)n21)N1C[C@@H](F)[C@@H](F)C1 [Example 424, (5S)-2-[(6-Chloropyridin-3-yl)methyl]-5-{[(3R,4S)-3,4-difluoropyrrolidin-1-yl]carbonyl}-5,6,7,8-tetrahydro[1,2,4]triazolo[4,3-a]pyridin-3(2H)-one] | 0.38 nM |
| CC1CCC(C(=O)N2CCC(F)(F)C2)n2c1nn(Cc1ccc(F)c(Cl)c1)c2=O (racemic) [Example 323, (5RS,8RS)-2-(3-Chloro-4-fluorobenzyl)-5-[(3,3-difluoropyrrolidin-1-yl)carbonyl]-8-methyl-5,6,7,8-tetrahydro[1,2,4]triazolo[4,3-a]pyridin-3(2H)-one] | 0.96 nM |
| Cc1nc(-c2ccc(Cn3nc4n(c3=O)C(C(=O)N3CCCC3)CCC4)cc2)no1 (racemic) [Example 10, (5RS)-2-[4-(5-Methyl-1,2,4-oxadiazol-3-yl)benzyl]-5-(pyrrolidin-1-ylcarbonyl)-5,6,7,8-tetrahydro[1,2,4]triazolo[4,3-a]pyridin-3(2H)-one] | 24 nM |
| Cc1ccc(Cn2nc3n(c2=O)[C@H](C(=O)N2CCC(O)(C(F)(F)F)C2)CCC3)cc1 (mixture of isomers) [Example 152, (5S)-5-{[(3RS)-3-Hydroxy-3-(trifluoromethyl)pyrrolidin-1-yl]carbonyl}-2-(4-methylbenzyl)-5,6,7,8-tetrahydro[1,2,4]triazolo[4,3-a]pyridin-3(2H)-one] | 38 nM |
| CC1Cc2nn(Cc3ccc(C(F)(F)F)nc3)c(=O)n2C(C(=O)N2C[C@@H](F)[C@@H](F)C2)C1 (mixture of isomers) [Example 336, (5RS,7RS)-5-{[(3R,4S)-3,4-Difluoropyrrolidin-1-yl]carbonyl}-7-methyl-2-{[6-(trifluoromethyl)pyridin-3-yl]methyl}-5,6,7,8-tetrahydro[1,2,4]triazolo[4,3-a]pyridin-3(2H)-one] | 0.66 nM |
| Cc1ccc(Cn2nc3n(c2=O)[C@H](C(=O)N2CCCC2)CC3)cc1 [Example 157, (5S)-2-(4-Methylbenzyl)-5-(pyrrolidin-1-ylcarbonyl)-2,5,6,7-tetrahydro-3H-pyrrolo[2,1-c][1,2,4]triazol-3-one] | 1.3 nM |
| O=C(C1CCCc2nn(Cc3ccc(F)c(F)c3)c(=O)n21)N1CCC(F)(F)C1 (racemic) [Example 83, (5RS)-2-(3,4-Difluorobenzyl)-5-[(3,3-difluoropyrrolidin-1-yl)carbonyl]-5,6,7,8-tetrahydro[1,2,4]triazolo[4,3-a]pyridin-3(2H)-one] | 2.1 nM |
| O=C(C1C(C(F)(F)F)CCc2nn(Cc3ccc(C(F)(F)F)nc3)c(=O)n21)N1CC[C@H](F)C1 (mixture of isomers) [Example 284, (5RS,6RS)-5-{[(3S)-3-Fluoropyrrolidin-1-yl]carbonyl}-6-(trifluoromethyl)-2-{[6-(trifluoromethyl)pyridin-3-yl]methyl}-5,6,7,8-tetrahydro[1,2,4]triazolo[4,3-a]pyridin-3(2H)-one] | 3 nM |
| O=C(C1CCc2nn(Cc3ccnc(C(F)(F)F)c3F)c(=O)n21)N1C[C@@H](F)[C@@H](F)C1 (single isomer, unassigned) [Example 176] | 445 nM |
| O=C(C1CCCc2nn(Cc3ccc(C(F)(F)F)nc3)c(=O)n21)N1CC[C@@H](F)C1 (mixture of isomers) [Example 100, (5RS)-5-{[(3R)-3-Fluoropyrrolidin-1-yl]carbonyl}-2-{[6-(trifluoromethyl)pyridin-3-yl]methyl}-5,6,7,8-tetrahydro[1,2,4]triazolo[4,3-a]pyridin-3(2H)-one] | 7.9 nM |
| O=C([C@@H]1CCCc2nn(Cc3ccc(F)nc3)c(=O)n21)N1CCC(F)(F)C1 [Example 536, (5S)-5-[(3,3-Difluoropyrrolidin-1-yl)carbonyl]-2-[(6-fluoropyridin-3-yl)methyl]-5,6,7,8-tetrahydro[1,2,4]triazolo[4,3-a]pyridin-3(2H)-one] | 9.6 nM |
| Cc1ccc(CCn2nc3n(c2=O)C(C(=O)N2CCCC2)CCC3)cc1 (racemic) [Example 57, (5RS)-2-[2-(4-Methylphenyl)ethyl]-5-(pyrrolidin-1-ylcarbonyl)-5,6,7,8-tetrahydro[1,2,4]triazolo[4,3-a]pyridin-3(2H)-one] | 4.1 nM |
| O=C([C@@H]1CCCc2nn(Cc3ncc(Cl)cc3F)c(=O)n21)N1C[C@@H](F)[C@@H](F)C1 [Example 408, (5S)-2-[(5-Chloro-3-fluoropyridin-2-yl)methyl]-5-{[(3R,4S)-3,4-difluoropyrrolidin-1-yl]carbonyl}-5,6,7,8-tetrahydro[1,2,4]triazolo[4,3-a]pyridin-3(2H)-one] | 0.46 nM |
| O=C(C1CCCc2nn(Cc3cccc(C(F)(F)F)c3F)c(=O)n21)N1CCCC1 (racemic) [Example 71] | 0.71 nM |
| O=C([C@@H]1CCCc2nn(Cc3nccc(C(F)(F)F)c3Cl)c(=O)n21)N1CCC(F)(F)C1 [Example 387, (5S)-2-{[3-Chloro-4-(trifluoromethyl)pyridin-2-yl]methyl}-5-[(3,3-difluoropyrrolidin-1-yl)carbonyl]-5,6,7,8-tetrahydro[1,2,4]triazolo[4,3-a]pyridin-3(2H)-one] | 3.4 nM |
| O=C([C@@H]1CCCc2nn(Cc3cc(C(F)(F)F)nc4ccccc34)c(=O)n21)N1CC[C@H](F)C1 [Example 539, (5S)-5-{[(3S)-3-Fluoropyrrolidin-1-yl]carbonyl}-2-{[2-(trifluoromethyl)quinolin-4-yl]methyl}-5,6,7,8-tetrahydro[1,2,4]triazolo[4,3-a]pyridin-3(2H)-one] | 0.85 nM |
| O=C(C1CC(C(F)(F)F)Cc2nn(Cc3ccc(C(F)(F)F)nc3)c(=O)n21)N1CC(F)C(F)C1 (single isomer, unassigned) [Example 584] | 50 nM |
| O=C(C1CC(C(F)(F)F)Cc2nn(Cc3ccc(Cl)nc3)c(=O)n21)N1C[C@@H](F)[C@@H](F)C1 (single isomer, unassigned) [Example 248] | 12 nM |
| O=C([C@@H]1CCCc2nn(Cc3ncccc3Cl)c(=O)n21)N1C[C@@H](F)[C@@H](F)C1 [Example 395, (5S)-2-[(3-Chloropyridin-2-yl)methyl]-5-{[(3R,4S)-3,4-difluoropyrrolidin-1-yl]carbonyl}-5,6,7,8-tetrahydro[1,2,4]triazolo[4,3-a]pyridin-3(2H)-one] | 1.6 nM |
| O=C(C1C(C(F)(F)F)CCc2nn(Cc3ncc(Cl)cc3F)c(=O)n21)N1CC[C@H](F)C1 (mixture of isomers) [Example 294, (5RS,6RS)-2-[(5-Chloro-3-fluoropyridin-2-yl)methyl]-5-{[(3S)-3-fluoropyrrolidin-1-yl]carbonyl}-6-(trifluoromethyl)-5,6,7,8-tetrahydro[1,2,4]triazolo[4,3-a]pyridin-3(2H)-one] | 20 nM |
